Source: ChEMBL document CHEMBL3862023, “Synthesis of N-aryl and N-arylcarbamoylamino derivatives of 1,3-diazinane-5-carboxamide and their activity against glioblastoma LN-229 cell line” (Bioorg Med Chem, 2016)
Values after ≈ are worked out from the molar mass of the structure shown.

How the values were obtained:
[1] = Cytotoxicity against human LN229 cells assessed as concentration required for induction of cell death after 24 hrs by crystal violet staining based light microscopic analysis; assay type: functional, LN-229
[2] = Solubility of the compound in water; assay type: physicochemical
[3] = 1-Octanol-water distribution coefficient, log P of compound; assay type: physicochemical
[4] = Solubility of compound in 1% DMSO at 100 mg/ml; assay type: physicochemical
[5] = Solubility of the compound in ethanol; assay type: physicochemical
[6] = Solubility of the compound in isopropanol; assay type: physicochemical
[7] = Solubility of the compound in DMSO; assay type: physicochemical
[8] = Solubility of the compound in chloroform; assay type: physicochemical
[9] = Solubility of the compound in trifluoroacetic acid; assay type: physicochemical
[10] = Solubility of the compound in CHCl3/TFA; assay type: physicochemical
[11] = Solubility of the compound in DMSO/TFA; assay type: physicochemical

SMILES	Activity [1] [µg/mL]	solubility [2] [µg/mL]	logP [3]	solubility [4]	solubility [5]	solubility [6]	solubility [7]	solubility [8]	solubility [9]	solubility [10]	solubility [11]
CN1C(=O)C(C(=O)Nc2ccc(Cl)cc2)C(=O)N(C)C1=O	10	130 (≈ 420 µM)	1.18	Insoluble							
CN1C(=O)C(C(=O)Nc2ccccc2)C(=O)N(C)C1=O	100	140 (≈ 509 µM)	0.4	Insoluble							
CN1C(=O)C(C(=O)NNC(=O)Nc2ccc([N+](=O)[O-])cc2)C(=O)N(C)C1=O	10				Insoluble	Insoluble	Insoluble	Insoluble	Insoluble	Insoluble	Insoluble
CN1C(=O)NC(=O)C(C(=O)NNC(=O)Nc2ccc(O)cc2)C1=O (stereo not drawn)		70 (≈ 209 µM)	1.08	Insoluble	Insoluble	Insoluble	Insoluble	Insoluble	Insoluble	Insoluble	Insoluble
N#Cc1ccc(NC(=O)NNC(=O)C2C(=O)NC(=O)N(c3ccccc3)C2=O)cc1 (stereo not drawn)	100				Insoluble	Insoluble	Insoluble	Insoluble	Insoluble	Insoluble	Insoluble
CN1C(=O)C(C(=O)NNC(=O)Nc2ccc(Cl)c(Cl)c2)C(=O)N(C)C1=O	1	500 (≈ 1240 µM)	0.73	Insoluble	Insoluble	Insoluble	Insoluble	Insoluble	Insoluble	Insoluble	Insoluble
O=C1NC(=O)C(C(=O)NNC(=O)Nc2ccc(Cl)cc2)C(=O)N1	100				Insoluble	Insoluble	Insoluble	Insoluble	Soluble	Soluble	Soluble
